Test [1] relates to BALB/cJRj mice. Put plainly: Elevated plus maze (EPM), acute anxiolytic-like effect. Format: in vivo. Conditions: GR125487 1 mg/kg i.p. 15 min before RS67333 1.5 mg/kg i.p. As for the experimental part: (§1) RS67333 (1.5 mg/kg, i.p.), diazepam (1.5 mg/kg, i.p.), fluoxetine (18 mg/kg, i.p.) were injected 45 min before testing in the Elevated Plus Maze (EPM), the Novelty Suppressed Feeding (NSF) or the Open Field (OF) in three independent cohorts of male BALB/cJRj mice.
(§2) To ensure the selectivity of the anxiolytic-like effects of RS67333, in a new cohort of male BALB/cJRj mice, GR125487 (1.0 mg/kg, i.p.) dissolved in 0.9% NaCl solution, was injected 15 minutes before RS67333 administration (1.5 mg/kg, i.p.). EPM or NSF occurred 45 min after RS67333 administration (A-S1). Behavioral consequences of the co-administration of GR125487+RS67333 were compared to RS67333 alone, diazepam (1.5 mg/kg, i.p.) fluoxetine (18 mg/kg, i.p.) and vehicle groups (0.9% saline solution, i.p.).
(§3) For mPFC drug infusion, two bilateral cannulae (75 μm-diameter silica capillary tubing inserted in 27G stainless steel catheter) were implanted in the mPFC [stereotaxic coordinates in mm from bregma: A=+2.10, L=±0.50, V=−2.60, A, anterior; L, lateral; and V, ventral, according to (A-S10)] under anesthesia (chloral hydrate, 400 mg/kg, i.p.). […] Diazepam (1.5 mg/kg) was used as a positive control.
In a new cohort of male BALB/cJRj mice, p-CPA was administered twice daily (at 0900 and 1700 h) for 3 consecutive days. RS67333 ([…]) and diazepam ([…]) were then intra-mPFC administered 24 h after the final p-CPA administration and behavioral test (EPM) occurred 45 minutes after local infusion.
The EPM is a widely used behavioral assay for rodents and it has been validated to assess the anti-anxiety effects of pharmacological agents (A-S11). This test was performed as described by (A-S1). The maze is a plus-cross-shaped apparatus, with two open arms and two arms closed by walls linked by a central platform 50 cm above the floor. Mice were individually put in the center of the maze facing an open arm and were allowed to explore the maze during 5 min for the behavioral consequences of an acute systemic administration or mPFC infusion and during 6 min for the optogenetic experiments. The time spent in and the numbers of entries into the open arms were used as an anxiety index. All parameters were measured using a videotracker (EPM3C, Bioseb, Vitrolles, France).

Test [2] has as its system BALB/cJRj mice. Nature of the test: Novelty suppressed feeding (NSF), acute anxiolytic-like effect. Conditions: GR125487 1 mg/kg i.p. 15 min before RS67333 1.5 mg/kg i.p. Format: in vivo. As for the experimental part:
as §1, §2, §3
The NSF is a conflict test that elicits competing motivations: the drive to eat and the fear of venturing into the center of a brightly lit arena. The latency to begin eating is used as an index of anxiety/depression-like behavior, because classical anxiolytic drugs as well as chronic antidepressants decrease this measure. The NSF test was carried out during a 10 min period as previously described (A-S12). Briefly, the testing apparatus consisted of a plastic box (50×50×20 cm), the floor of which was covered with approximately 2 cm of wooden bedding. Twenty-four hours prior to behavioral testing, all food was removed from the home cage. At the time of testing, a single pellet of food (regular chow) was placed on a white paper platform positioned in the center of the box. Each animal was placed in a corner of the box, and a stopwatch was immediately started. The latency to eat (defined as the mouse sitting on its haunches and biting the pellet with the use of forepaws) was timed. Immediately afterwards, the animal was transferred to its home cage, and the amount of food consumed by the mouse in the subsequent 5 min was measured, serving as a control for change in appetite as a possible confounding factor.

`COc1[nH]c2ccc(F)cc2c1C(=O)OCC1CCN(CCNS(C)(=O)=O)CC1.NS(=O)(=O)O` [GR125487, 5-Fluoro-2-methoxy-[1-[2-[(methylsulfonyl)amino]ethyl]-4-piperidinyl]-1H-indole-3-methylcarboxylate sulfamate]: in the test with BALB/cJRj mice [1], the “RS67333-induced increase in time and percent time spent in the open arms (EPM)” value is “prevented”; the “RS67333-induced increase of ambulatory distance in the open arms divided by total distance (EPM)” value is recorded as “prevented”. Moreover, the “effect of RS67333 on the latency to feed (NSF)” value in the test on BALB/cJRj mice [2] is “occluded”.

Values taken from patent publication US20220031684A1, “PROPHYLACTIC EFFICACY OF SEROTONIN 4 RECEPTOR AGONISTS AGAINST STRESS” (THE TRUSTEES OF COLUMBIA UNIVERSITY IN THE CITY OF NEW YORK, priority 2019, published 2022).
